{"source": "patent US4246263A", "about": "“Antiinflammatory and immunoregulatory pyrimidines, their method of use and pharmaceutical compositions” (priority 1979, dated 1981)", "key": {"[1]": {"system": "polyarthritis produced by injection of complete Freund's adjuvant", "test": "polyarthritis produced by injection of complete Freund's adjuvant in Wistar-Lewis rats", "assay_type": "in vivo, rat (Wistar-Lewis)", "settings": "for effect on weight loss induced by adjuvant disease: rat, in vivo; for suppression of primary and secondary responses: reference NSAI drugs, dose not given", "from_the_text": "This pattern of antiarthritic activity again distinguishes 4-(2-hydroxyethylthiomethyl)pyridine /from the classical NSAI drugs."}, "[2]": {"system": "humoral immune response to sheep red blood cells", "test": "humoral immune response of mice to sheep red blood cells", "assay_type": "in vivo", "settings": "for effect on humoral immune response to sheep red blood cells (immunosuppressive drugs): same conditions, dose of the drugs not given"}, "mice": {"system": "mice", "test": "acute oral toxicity in mice", "assay_type": "in vivo", "experimental": "(§1) Its oral LD50 in mice is greater than 100 mg./kg. In the rat, it also has an LD50 value greater than 1000 mg./kg. […] No changes in clinical chemistry, hematology or body weight were observed."}, "rat": {"system": "rat", "test": "acute toxicity in the rat", "assay_type": "in vivo", "settings": "rats", "experimental": "as §1"}, "[3]": {"test": "acute toxicity in the rat", "assay_type": "in vivo", "settings": "rat, in vivo, po", "experimental": "as §1"}, "[4]": {"system": "carrageenin-induced rat foot edema", "test": "carrageenin-induced rat foot edema test", "assay_type": "in vivo, rat (male albino)", "experimental": "(§2) Antiinflammatory activity is reflected in the so-called rat foot edema test, in which the ability of an oral dose of the compound to inhibit an inflammatory reaction is measured, while immunoregulatory activity is assessed by the so-called mouse E-rosette procedure in which the ability of the test compound to restore erythrocyte rosette formation in thymectomized mice is measured. These tests are described in greater detail below.\nAs mentioned above, the antiinflammatory activity of the compounds of the present invention is determined in the standard carrageenin-induced rat foot edema test [described by C. A. Winter et al., Proc. Soc. Exp. Biol. 111, p. 544 (1962)]. In this test, antiinflammatory activity is determined as the inhibition of edema formation in the hind paw of male albino rats (weight 150-190 g.) in response to a subplantar injection of carrageenin. The carrageenin is injected as a 1 percent aqueous suspension (0.05 ml.) 1 hour after oral administration of the drug. Edema formation is then assessed 3 hours after the carrageenin injection by measuring the volume of the injected paw initially as well as at the 3 hour mark. The increase in volume three hours after carrageenin injection constitutes the individual response. Compounds are considered active if the response between the drug-treated animals (six rats/group) and the control group (i.e., animals receiving the vehicle alone) is deemed to be significant on comparison with results afforded by standard compounds like acetylsalicylic acid at 100 mg./kg […] phenylbutazone at 33 mg./kg., both by the oral route of administration. The activity of the compound under test is expressed as the % inhibition of edema at a given oral dose. The ability of compounds to inhibit edema at various oral dosages (mg./kg., i.e. mg. of drug/kg. of rat body weight) is shown in Table II."}, "[5]": {"system": "ultraviolet light induced erythema", "test": "ultraviolet light induced erythema procedure", "assay_type": "in vivo", "settings": "for suppression of erythema (NSAI drugs): ultraviolet light induced erythema, dose not given"}, "[6]": {"system": "azathioprine-sensitive, rosette-forming cells", "test": "mouse E-rosette procedure (restoration of azathioprine-sensitive rosette-forming cells in adult thymectomized mice)", "assay_type": "in vivo, mouse (CD-1", "experimental": "as §2\nAs mentioned above, the immunoregulatory activity of the compounds of this invention is assessed by the mouse E-rosette procedure. In the mouse, the presence of a thymus is required for full expression of normal rosette formation with sheep erythrocytes [see for example, Bach and Dardenne, Immunol. 25, 353 (1973)]. The procedure examines the ability of a drug to restore azathioprine-sensitive, rosette-forming cells in adult thymectomized mice to the levels of normal animals. Specifically, rosette formation is examined in CD-1 mice thymectomized at 4 weeks of age and left at least 14 days post-surgery before manipulation (ATX mice). The ATX mice are dosed orally either with saline vehicle or drug. Sixteen hours later, single cell suspensions are prepared in Hanks balanced salt solution (HBSS) from the pooled spleens of three mice. To each tube is added 0.1 ml of lymphocytes (6×10^7 /ml) in HBSS and either 0.1 ml of HBSS or 0.1 ml of 40 μg/ml azathioprine in HBSS. After 90 minutes incubation at 37° C., the cells are washed 2× with 5 ml. of HBSS, made back up to 0.2 ml, and 0.2 ml of sheep red blood cells (erythrocytes) at 1.2×10^8 cells/ml. added. Then […] on hemagglutination slides and the number of rosettes counted. The ability of the test compound to restore the number of azathioprine sensitive rosetting cells to normal or higher is determined. In normal mice 42%±12% azathioprine sensitivity is found. In adult thymectomized mice 3±3% azathioprine sensitivity is found."}, "[7]": {"system": "prostaglandin synthesis in MC5-5 cells", "test": "prostaglandin synthesis in MC5-5 cells in vitro", "assay_type": "cell-based", "settings": "read-out: IC50, inhibition of prostaglandin synthesis in MC5-5 cells"}, "rats": {"system": "rats", "settings": "oral"}, "water solubility": {"test": "water solubility", "assay_type": "physicochemical", "settings": "dihydrogen phosphate salt"}, "[8]": {"settings": "oral dosage of 33 mg./kg., 3 hours after carrageenin"}, "[9]": {"settings": "oral dosage of 1 mg./kg., thymectomized mice"}}, "note": "pIC50: −log10 of the molar value. Read-outs that look alike come from different tables or passages of the source."}
{"smiles": "CN1C(C(=O)Nc2ccccn2)=C(O)c2ccccc2S1(=O)=O", "note": "[Piroxicam, reference compound]", "values": [{"measurement": "effect on weight loss induced by adjuvant disease", "setting": "[1]", "result": "partially preventing the weight loss"}, {"measurement": "suppression of primary and secondary responses", "setting": "[1]", "result": "effective in suppressing both the primary and secondary responses"}]}
{"smiles": "Sc1ncnc2nc[nH]c12", "note": "[6-mercaptopurine]", "values": [{"measurement": "effect on humoral immune response to sheep red blood cells (immunosuppressive drugs)", "setting": "[2]", "result": "profoundly inhibitory"}]}
{"smiles": "OCCSCc1ccncc1", "note": "[4-(2-Hydroxyethylthiomethyl)pyridine]", "values": [{"measurement": "acute toxicity relative to levamisole", "setting": "mice; mice", "result": "less acutely toxic than levamisole"}, {"measurement": "LD50", "setting": "mice; mouse, in vivo, po", "result": "greater than 100 mg./kg."}, {"measurement": "effect on humoral immune response to sheep red blood cells", "setting": "[2]; four daily oral doses, 33 mg./kg.", "result": "did not affect the humoral immune response"}, {"measurement": "acute toxicity relative to levamisole", "setting": "rat", "result": "less acutely toxic than levamisole"}, {"measurement": "LD50", "setting": "[3]", "result": "> 1000", "unit": "mg/kg"}, {"measurement": "% Inhibition of Edema", "setting": "[4]; [8]", "result": 52, "unit": "%"}, {"measurement": "% Inhibition of Edema", "setting": "[4]; oral, 3.3 mg./kg.", "result": 16, "unit": "%"}, {"measurement": "% Inhibition of Edema", "setting": "[4]; oral, 10 mg./kg.", "result": 29, "unit": "%"}, {"measurement": "activity in ultraviolet light induced erythema procedure", "setting": "[5]; 33 mg./kg. p.o.", "result": "lack of activity"}, {"measurement": "% Rosetting Cells", "setting": "[6]; oral, 0.01 mg./kg.", "result": 16, "unit": "%"}, {"measurement": "ED50", "setting": "[1]; Rattus norvegicus, po", "result": "~33", "unit": "mg/kg"}, {"measurement": "effect on the rapid onset, acute inflammation of the adjuvant-injected foot", "setting": "[1]; day 4 or day 16", "result": "no effects"}, {"measurement": "antiarthritic effect on the secondary response (spread of disease to the uninjected foot)", "setting": "[1]; p.o.", "result": "selective for the slow onset, lymphoid cell mediated, secondary response"}, {"measurement": "protection from adjuvant polyarthritis", "setting": "[1]; p.o.", "result": "dose-related protection"}, {"measurement": "effect on weight loss induced by adjuvant disease", "setting": "[1]", "result": "does not affect the weight loss"}, {"measurement": "pIC50", "setting": "[7]", "result": "< 4.00"}]}
{"smiles": "CC(CO)SCc1ccncc1", "note": "(stereo not shown) [drawing 19]", "values": [{"measurement": "% Rosetting Cells", "setting": "[6]; [9]", "result": 40, "unit": "%"}]}
{"smiles": "COCCSCc1ccncc1", "note": "[CH2 CH2, CH3, 1, 4-(2-Methoxyethylthiomethyl)pyridine]", "values": [{"measurement": "% Rosetting Cells", "setting": "[6]; [9]", "result": 33, "unit": "%"}]}
{"smiles": "CC(CO)SCc1ccncc1", "note": "(stereo not shown) [drawing 30]", "values": [{"measurement": "% Inhibition of Edema", "setting": "[4]; [8]", "result": 20, "unit": "%"}]}
{"smiles": "CN(Cc1cnc2nc(N)nc(N)c2n1)c1ccc(C(=O)N[C@@H](CCC(=O)O)C(=O)O)cc1", "note": "[methotrexate]", "values": [{"measurement": "effect on humoral immune response to sheep red blood cells (immunosuppressive drugs)", "setting": "[2]", "result": "profoundly inhibitory"}]}
{"smiles": "O=P1(N(CCCl)CCCl)NCCCO1", "note": "(stereo not shown) [cyclophosphamide]", "values": [{"measurement": "effect on humoral immune response to sheep red blood cells (immunosuppressive drugs)", "setting": "[2]", "result": "profoundly inhibitory"}]}
{"smiles": "CC(=O)Oc1ccccc1C(=O)O", "note": "[aspirin, acetylsalicylic acid]", "values": [{"measurement": "ulcerogenic effects", "setting": "rats; 50 mg./kg.", "result": "distinct ulcerogenic effects"}]}
{"smiles": "O=[N+]([O-])c1ccc(C(O)CSCc2ccncc2)cc1", "note": "(stereo not shown)", "values": [{"measurement": "% Rosetting Cells", "setting": "[6]; [9]", "result": 40, "unit": "%"}]}
{"smiles": "OCC(O)CSCc1ccncc1", "note": "(stereo not shown) [drawing 17]", "values": [{"measurement": "% Rosetting Cells", "setting": "[6]; [9]", "result": 57, "unit": "%"}]}
{"smiles": "OCC(SCc1ccncc1)c1ccccc1", "note": "(stereo not shown)", "values": [{"measurement": "% Rosetting Cells", "setting": "[6]; [9]", "result": 33, "unit": "%"}]}
{"smiles": "Oc1ccccc1SCc1ccncc1", "values": [{"measurement": "% Rosetting Cells", "setting": "[6]; [9]", "result": 59, "unit": "%"}]}
{"smiles": "CC(=O)OCCSCc1ccncc1", "note": "[CH2 CH2, drawing 27, 1, 4-(2-Acetoxyethylthiomethyl)pyridine]", "values": [{"measurement": "% Rosetting Cells", "setting": "[6]; [9]", "result": 40, "unit": "%"}]}
{"smiles": "OCCSCc1ccncn1", "note": "[4-(2-hydroxyethylthiomethyl)pyrimidine, 4-(2-Hydroxyethylthiomethyl)pyrimidine]", "values": [{"measurement": "% Inhibition of Edema", "setting": "[4]; [8]", "result": 11, "unit": "%"}, {"measurement": "restoration of rosette formation", "setting": "[6]; oral dosage of 1 mg./kg., pyrimidine", "result": 38, "unit": "%"}]}
{"smiles": "CC(O)CSCc1ccncc1", "note": "(stereo not shown) [drawing 31]", "values": [{"measurement": "% Inhibition of Edema", "setting": "[4]; [8]", "result": 5, "unit": "%"}]}
{"smiles": "OCC(O)CSCc1ccncc1", "note": "(stereo not shown) [drawing 29]", "values": [{"measurement": "% Inhibition of Edema", "setting": "[4]; [8]", "result": 17, "unit": "%"}]}
{"smiles": "COc1ccc2c(c1)c(CC(=O)O)c(C)n2C(=O)c1ccc(Cl)cc1", "note": "[indomethacin]", "values": [{"measurement": "ulcerogenic effects", "setting": "rats; 10 mg./kg.", "result": "distinct ulcerogenic effects"}, {"measurement": "suppression of erythema (NSAI drugs)", "setting": "[5]", "result": "clearcut suppression of erythema"}]}
{"smiles": "CC(O)C(C)SCc1ccncc1", "note": "(stereo not shown)", "values": [{"measurement": "% Rosetting Cells", "setting": "[6]; [9]", "result": 63, "unit": "%"}]}
{"smiles": "CC(O)CSCc1ccncc1", "note": "(stereo not shown) [drawing 21]", "values": [{"measurement": "% Rosetting Cells", "setting": "[6]; [9]", "result": 56, "unit": "%"}]}
{"smiles": "OC(CSCc1ccncc1)c1ccccc1", "note": "(stereo not shown)", "values": [{"measurement": "% Rosetting Cells", "setting": "[6]; oral, 10 mg./kg.", "result": 50, "unit": "%"}]}
{"smiles": "O=P(O)(O)O.OCCSCc1ccncc1", "note": "[4-(2-hydroxyethylthiomethyl)pyridinium dihydrogen phosphate]", "values": [{"measurement": "water solubility", "setting": "water solubility", "result": "excellent water solubility"}]}
{"smiles": "CC(C)(O)CSCc1ccncc1", "values": [{"measurement": "% Rosetting Cells", "setting": "[6]; [9]", "result": 39, "unit": "%"}]}
{"smiles": "CC(SCc1ccncc1)C(O)c1ccccc1", "note": "(stereo not shown)", "values": [{"measurement": "% Rosetting Cells", "setting": "[6]; [9]", "result": 33, "unit": "%"}]}
{"smiles": "Cn1cnc([N+](=O)[O-])c1Sc1ncnc2nc[nH]c12", "note": "[azathioprine]", "values": [{"measurement": "effect on humoral immune response to sheep red blood cells (immunosuppressive drugs)", "setting": "[2]", "result": "profoundly inhibitory"}]}
{"smiles": "COc1ccc(C(O)CSCc2ccncc2)cc1", "note": "(stereo not shown)", "values": [{"measurement": "% Rosetting Cells", "setting": "[6]; [9]", "result": 43, "unit": "%"}]}
{"smiles": "OCCCSCc1ccncc1", "note": "[CH2 CH2 CH2, H, 1, 4-(3-Hydroxypropylthiomethyl)pyridine]", "values": [{"measurement": "% Rosetting Cells", "setting": "[6]; [9]", "result": 36, "unit": "%"}]}
{"smiles": "OCCSCCc1ccncc1", "note": "[CH2 CH2, H, 2, 4-[2-(2-Hydroxyethylthio)ethyl]pyridine]", "values": [{"measurement": "% Rosetting Cells", "setting": "[6]; [9]", "result": 50, "unit": "%"}]}
{"smiles": "CCCCC1C(=O)N(c2ccccc2)N(c2ccccc2)C1=O", "note": "[phenylbutazone, reference compound]", "values": [{"measurement": "suppression of erythema (NSAI drugs)", "setting": "[5]", "result": "clearcut suppression of erythema"}, {"measurement": "effect on weight loss induced by adjuvant disease", "setting": "[1]", "result": "partially preventing the weight loss"}, {"measurement": "suppression of primary and secondary responses", "setting": "[1]", "result": "effective in suppressing both the primary and secondary responses"}]}
